# Assay results as given in publication PMC5557053 (European journal of clinical pharmacology, 2011).
# Where “and” joins values, the source holds several entries; their conditions need not be identical. Equal entries are not always repeated.
# How the values were obtained:
# [1] = system: OCT1; conditions: cited from earlier work
# [2] = system: efflux transporters (ABCB1, ABCG2); conditions: CML cells; cited from earlier work
# [3] = system: BCR-ABL transcript level; experiment: Exposure-efficacy: BCR-ABL ratio and MMR at 12 months by observed Cmin quartile; type: in vivo, human
# [4] = Population PK analysis, nonlinear mixed-effect modeling
# [5] = clinical; conditions: human, serum, oral
# [6] = Exposure-safety: logistic regression against model-predicted AUC0–24; type: in vivo, human; conditions: for predicted incidence of all grade total bilirubin elevation: median baseline total bilirubin 6.84 μmol/L; for AUC(0-t): human, serum, oral
# [7] = human, in vivo
# [8] = population mean (standard error)
structure (smiles),measurement,setting,value
Cc1cn(-c2cc(NC(=O)c3ccc(C)c(Nc4nccc(-c5cccnc5)n4)c3)cc(C(F)(F)F)c2)cn1 [nilotinib],dependence of movement into CML cells on influx transporter OCT1,[1],independent of the influx transporter OCT1
same,"role of efflux transporters (ABCB1, ABCG2) in cellular retention",[2],none of them appear to play an important role
same,MMR difference vs Q1 (95% CI),"[3]; Q2/3 829–1,569 ng/mL vs Q1","1.7 (−10.4, 13.8)"
same,MMR difference vs Q1 (95% CI),"[3]; Q4 >1,569 ng/mL vs Q1","4.6 (−9.3, 18.6)"
same,MMR difference vs Q2/3 (95% CI),"[3]; Q4 >1,569 ng/mL vs Q2/3","2.9 (−9.0, 14.8)"
same,MMR at 12 months,"[3]; average Cmin Q1 <829 ng/mL, evaluable patients n observed 96",45 (46.9) n (%)
same,MMR at 12 months,"[3]; average Cmin Q2/3 829–1,569 ng/mL, evaluable patients n observed 208",101 (48.6) n (%)
same,MMR at 12 months,"[3]; average Cmin Q4 >1,569 ng/mL, evaluable patients n observed 101",52 (51.5) n (%)
same,predicted decrease in CL,[4]; AST increase from ULN to 1.5 × ULN,1%
same,predicted decrease in CL,[4]; AST increase from ULN to 2 × ULN,3%
same,"σ1, proportional random error",[4]; estimate (standard error),29.8 (0.917) %
same,"σ2, additive random error",[4]; estimate (standard error),110 (17.4) ng/mL
same,Interindividual variability of CL,"[4]; final model, % (SE)",37.6% and 37.6 (1.4) %
same,Interindividual variability of V1,"[4]; final model, % (SE)",79.2% and 79.2 (14.2) %
same,Interindividual variability of V2,"[4]; final model, % (SE)",98.9% and 98.9 (19.7) %
same,interindividual variability of CL before addition of significant covariates,[4]; model without covariates,40.0%
same,"D1, zero-order input duration",[4]; [8],9.88 (0.112) h
same,"V2, volume of distribution of peripheral compartment",[4]; [8],181 (25.4) L
same,"Lag, lag time for absorption","[4]; population mean, fixed",0.67 h (fixed)
same,lower bioavailability or systemic exposure in male than female patients,[4]; same dose level,approximately 10%
same,predicted decrease in CL,[4]; total bilirubin increase from ULN to 1.5 × ULN,12%
same,predicted decrease in CL,[4]; total bilirubin increase from ULN to 2 × ULN,23%
same,predicted decrease in CL,[4]; total bilirubin increase from ULN to 2.5 × ULN,32%
same,Vd,[5],58 L
same,clearance,[5],350 mL/min
same,"predicted incidence of all grade abnormalities, hemoglobin",[6]; AUC0–24 16 μg·h/mL,31.7%
same,"predicted incidence of all grade abnormalities, lipase",[6]; AUC0–24 16 μg·h/mL,17.4%
same,predicted incidence of all grade total bilirubin elevation,[6]; AUC0–24 16 μg∙h/mL,29.4%
same,"predicted incidence of all grade abnormalities, hemoglobin",[6]; AUC0–24 24 μg·h/mL,36.4%
same,"predicted incidence of all grade abnormalities, lipase",[6]; AUC0–24 24 μg·h/mL,23.8%
same,predicted incidence of all grade total bilirubin elevation,[6]; AUC0–24 24 μg∙h/mL,46.5%
same,"predicted incidence of all grade abnormalities, hemoglobin",[6]; AUC0–24 32 μg·h/mL,39.9%
same,"predicted incidence of all grade abnormalities, lipase",[6]; AUC0–24 32 μg·h/mL,29.3%
same,predicted incidence of all grade total bilirubin elevation,[6]; AUC0–24 32 μg∙h/mL,59.5%
same,AUC(0-t),[6],25900 ng·h/mL
same,AUC(0-t),"[6]; male, 300 mg",24000 ng·h/mL
same,higher exposure in 400 mg twice-daily arm than in 300 mg twice-daily arm,[7],11.5%
